Measurements reported in patent US20250235456A1, “METHODS OF USE FOR AZA-QUINAZOLINE COMPOUNDS” (Iambic Therapeutics, Inc., priority 2024, published 2025).
pIC50: −log10 of the molar value.

Key:
Type in all cases: biochemical
[1] = target: CDK4/Cyclin D1 (Homo sapiens (Human), UniProt P11802); assay: CDK4/Cyclin D1 CHEF Assay; conditions: AQT; read-out: CDK4/CyclinD1 AQT IC50
Excerpt: CDK4/Cyclin D1 CHEF Assay
The purpose of CDK4/Cyclin Dl assay is to evaluate the inhibition (% inhibition and IC50 values) of small molecule inhibitors by using a Chelation-Enhance Fluorescence (CHEF) assay. In a CHEF assay, phosphorylation of a peptide substrate results in proportional increase in fluorescence. CHEF kinase assay use peptide substrates containing a synthetic alpha-amino acid with a side chain bearing an 8-hydroxyquinoline derivative (sulfonamido-oxide, Sox). Upon phosphorylation of a nearby serine, threonine or tyrosine and in the presence of Mg(II), the spectral properties of the Sox residue are altered, emitting 485 nm wavelength light when excited with a 360 nm wavelength light source. CDK4/Cyclin D1 catalyzes the phosphoryl transfer to the SOX-labeled substrate peptide AQT0258 from Assayquant Technologies. […] The reaction was initiated with the addition of substrate solution, following a 30-minute pre-incubation of enzyme and inhibitor at 22° C. in the reaction mix. Reactions were allowed to proceed for 3 hrs at 22° C., followed by fluorescence read of the reaction. The IC50 determinations were made from a plot of the fractional velocity as a function of inhibitor concentration fit to the 4 parameters IC50 equation.

[2] = target: CDK6/Cyclin D3 (Homo sapiens (Human), UniProt Q00534); assay: CDK6/Cyclin D3 ADP-Glo Kinase Assay; conditions: read-out: CDK6/CyclinD3 IC50
Method: CDK6/Cyclin D3 ADP-Glo Kinase Assay
(§1) The purpose of the CDK6/Cyclin D3 assay is to evaluate the inhibition (% inhibition and IC50 values) in the presence of small molecule inhibitors by using a Luminescent based ADP-Glo assay. CDK6/Cyclin D3 catalyzes the production of ADP from ATP. ADP-Glo assay monitors ADP producing biochemical reactions. ADP-Glo is performed in 2 steps upon completion of kinase reaction: a combined termination of kinase reaction and depletion of remaining ATP in the first step, and conversion of generated ADP to ATP and the newly produced ATP to light output using luciferase/luciferin reaction in the second step. The luminescent signal generated is proportional to the ADP concentration produced and is correlated with the kinase activity. CDK6/Cychin D3 was purchased from Carna. […] The assay was initiated with the addition of ATP-containing substrate solution, following a 30-minute pre-incubation of enzyme and inhibitor at room temperature in the reaction mixture. The reaction was stopped after 90 minutes at room temperature by the addition of 10 μL of ADP-GLO Reagent. After a 90-minute incubation, 20 μL of Kinase Detection Reagent was added. Samples were incubated for 40 minutes, after which plate well luminescence was measured on a Envision microplate reader. The IC50 determinations were made from a plot of the fractional velocity as a function of inhibitor concentration fit to the 4 parameters IC50 equation.

[3] = target: CDK1/Cyclin B1 (Homo sapiens (Human), UniProt P06493); assay: CDK1/Cyclin B1 ADP-Glo Kinase Assay
Method: CDK1/Cyclin B1 ADP-Glo Kinase Assay
as §1, with “CDK1/Cyclin Bi” for “the CDK6/Cyclin D3”, “values)” for “values) in the presence”, “CDK1/Cyclin B1” for “CDK6/Cyclin D3”, “CDK1/Cyclin B1” for “CDK6/Cychin D3”, “Carna (Cat 04-102).” for “Carna.”, “90 minute” for “90-minute”

CDK4/Cyclin D1, sequence (P11802 whole entry, species assumed): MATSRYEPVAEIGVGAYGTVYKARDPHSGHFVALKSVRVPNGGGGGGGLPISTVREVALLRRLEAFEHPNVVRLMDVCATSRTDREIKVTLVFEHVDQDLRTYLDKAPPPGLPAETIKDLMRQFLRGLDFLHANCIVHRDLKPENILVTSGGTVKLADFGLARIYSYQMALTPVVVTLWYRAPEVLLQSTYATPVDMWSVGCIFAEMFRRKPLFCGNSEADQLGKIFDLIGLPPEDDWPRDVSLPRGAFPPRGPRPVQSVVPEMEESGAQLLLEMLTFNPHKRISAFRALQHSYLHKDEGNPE
CDK4/Cyclin D1, sequence (P24385 whole entry partner, species assumed): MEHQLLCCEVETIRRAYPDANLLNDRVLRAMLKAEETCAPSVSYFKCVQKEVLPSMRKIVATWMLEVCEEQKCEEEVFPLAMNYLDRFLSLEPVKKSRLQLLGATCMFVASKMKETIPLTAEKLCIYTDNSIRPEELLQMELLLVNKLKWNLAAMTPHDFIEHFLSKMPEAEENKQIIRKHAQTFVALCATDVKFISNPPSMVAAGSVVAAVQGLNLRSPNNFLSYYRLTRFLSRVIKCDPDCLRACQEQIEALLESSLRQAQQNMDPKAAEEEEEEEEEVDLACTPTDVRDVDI
CDK6/Cyclin D3, sequence (Q00534 whole entry): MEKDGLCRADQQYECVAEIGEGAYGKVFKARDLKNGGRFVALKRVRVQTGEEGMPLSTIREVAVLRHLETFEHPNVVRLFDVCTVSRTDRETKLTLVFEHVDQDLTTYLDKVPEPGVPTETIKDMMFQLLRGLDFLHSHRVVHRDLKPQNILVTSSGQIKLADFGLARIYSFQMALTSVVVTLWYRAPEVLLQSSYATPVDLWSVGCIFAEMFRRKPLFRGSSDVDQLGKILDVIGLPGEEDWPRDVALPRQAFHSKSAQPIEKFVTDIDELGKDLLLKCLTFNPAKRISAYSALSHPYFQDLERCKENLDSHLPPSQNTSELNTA
CDK6/Cyclin D3, sequence (P30281 whole entry partner): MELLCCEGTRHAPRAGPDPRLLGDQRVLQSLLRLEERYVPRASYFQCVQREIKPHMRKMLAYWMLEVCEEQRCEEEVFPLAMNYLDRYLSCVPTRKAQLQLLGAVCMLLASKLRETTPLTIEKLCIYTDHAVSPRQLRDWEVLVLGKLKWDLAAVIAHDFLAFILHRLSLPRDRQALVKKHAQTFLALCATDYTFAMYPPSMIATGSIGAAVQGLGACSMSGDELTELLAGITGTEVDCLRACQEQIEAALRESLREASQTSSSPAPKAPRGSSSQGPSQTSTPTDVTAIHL
CDK1/Cyclin B1, sequence (P06493 whole entry): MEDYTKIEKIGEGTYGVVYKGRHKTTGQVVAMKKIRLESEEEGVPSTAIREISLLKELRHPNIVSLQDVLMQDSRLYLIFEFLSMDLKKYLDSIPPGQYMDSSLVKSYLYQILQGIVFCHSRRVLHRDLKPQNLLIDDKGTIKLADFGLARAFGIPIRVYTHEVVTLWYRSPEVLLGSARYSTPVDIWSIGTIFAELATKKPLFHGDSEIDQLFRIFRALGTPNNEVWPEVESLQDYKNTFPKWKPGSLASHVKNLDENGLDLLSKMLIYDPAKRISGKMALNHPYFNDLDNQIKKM
CDK1/Cyclin B1, sequence (P14635 whole entry partner): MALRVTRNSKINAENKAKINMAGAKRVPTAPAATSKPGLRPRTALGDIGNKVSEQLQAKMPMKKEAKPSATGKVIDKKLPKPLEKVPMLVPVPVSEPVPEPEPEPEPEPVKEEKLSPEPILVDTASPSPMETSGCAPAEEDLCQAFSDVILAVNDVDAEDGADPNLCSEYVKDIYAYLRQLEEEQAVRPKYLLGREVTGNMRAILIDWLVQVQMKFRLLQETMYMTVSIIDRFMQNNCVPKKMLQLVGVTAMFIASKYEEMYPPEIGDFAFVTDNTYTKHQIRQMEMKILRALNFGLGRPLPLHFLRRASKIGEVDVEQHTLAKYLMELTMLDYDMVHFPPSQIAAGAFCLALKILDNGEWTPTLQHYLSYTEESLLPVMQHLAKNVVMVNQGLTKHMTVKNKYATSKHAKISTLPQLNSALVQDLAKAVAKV

Row | SMILES | pIC50 [1] | pIC50 [2] | pIC50 [3]
1 | CN1Cc2ccc(Nc3ncc4ccnc(N5CCC6(CCN(S(C)(=O)=O)C6)C5)c4n3)cc2C1 (stereo not drawn) [Compound 23, N-(2-methylisoindolin-5-yl)-8-(7-(methylsulfonyl)-2,7-diazaspiro[4.4]nonan-2-yl) pyrido[3,4-d]pyrimidin-2-amine] | > 6.70 | > 6.70 | 
2 | CN1Cc2ccc(Nc3ncc4ccnc(N5CC6(C5)CS(=O)(=O)C6)c4n3)cc2C1 [Compound 24, 6-(2-((2-methylisoindolin-5-yl)amino)pyrido [3,4-d]pyrimidin-8-yl)-2-thia-6-azaspiro[3.3] heptane2,2-dioxide] | > 6.70 | > 6.70 | 
3 | Cc1cc2cnc(Nc3ccc(N4CC5(CN(C)C5)C4)cc3)nc2c(N2CCC(C#N)(C3CC3)C2)n1 (stereo not drawn) [Compound 28, 3-cyclopropyl-1-(6-methyl-2-((4-(6-methyl-2,6-diazaspiro[3.3]heptan-2-yl)phenyl)amino)pyrido[3,4-d]pyrimidin-8-yl)pyrrolidine-3-carbonitrile] | > 6.70 | > 6.70 | 
4 | Cc1cc2cnc(NC3CCN(S(=O)(=O)C4CC4)CC3)nc2c(N2CC3(CNC3)C2)n1 [Compound 32, N-(1-(cyclopropylsulfonyl)piperidin-4-yl)-6-methyl-8-(2,6-diazaspiro[3.3]heptan-2-yl) pyrido[3,4-d]pyrimidin-2-amine] | > 6.70 | > 6.70 | 
5 | Cc1cc2cnc(Nc3cc4c(cc3F)CN(S(C)(=O)=O)C4)nc2c(N2CC3(CCNC3)C2)n1 [Compound 39, N-(6-fluoro-2-(methylsulfonyl)isoindolin-5-yl)-6-methyl-8-(2,6-diazaspiro [3.4]octan-2-yl)pyrido[3,4-d]pyrimidin-2-amine] | 6.30 to 6.70 | < 5.70 | < 5.70
6 | Cc1cc2cnc(Nc3ccc4c(c3)CN(C)C4)nc2c(N2CC3(C2)CN(C2CC2)C3)n1 [Compound 44, 8-(6-cyclopropyl-2,6-diazaspiro[3.3]heptan-2-yl)-6-methyl-N-(2-methylisoindolin-5-yl)pyrido[3,4-d]pyrimidin-2-amine] | 6.30 to 6.70 |  | < 5.70
7 | Cc1cc2cnc(N[C@H]3CC[C@@H](CN(C)C)CC3)nc2c(N2CCC3(C2)CC3(F)F)n1 (stereo partly drawn) [Compound 45, 8-(1,1-difluoro-5-azaspiro[2.4]heptan-5-yl)-N-((1s,4s)-4-((dimethylamino)methyl)cyclohexyl)-6-methylpyrido[3,4-d]pyrimidin-2-amine] | > 6.70 |  | < 5.70
8 | Cc1cc2cnc(Nc3ccc4c(c3)CN(C3CC3)C4)nc2c(N2CC3(CCNC3)C2)n1 [Compound 47] | > 6.70 | > 6.70 | 
9 | Cc1cc2cnc(NC3CCN(S(=O)(=O)CC4CCCC4)CC3)nc2c(N2CC3(CCNC3)C2)n1 [Compound 51, N-(1-((cyclopentylmethyl)sulfonyl)piperidin-4-yl)-6-methyl-8-(2,6-diazaspiro[3.4]octan-2-yl)pyrido[3,4-d]pyrimidin-2-amine] | > 6.70 | 6.30 to 6.70 | 
10 | Cc1cc2cnc(NC3CCN(S(=O)(=O)C4CC4)CC3)nc2c(N2CC(C#N)(CCF)C2)n1 [Compound 68, 1-(2-((1-(cyclopropylsulfonyl)piperidin-4-yl)amino)-6-methylpyrido[3,4-d]pyrimidin-8-yl)-3-(2-fluoroethyl) azetidine-3-carbonitrile] | 6.30 to 6.70 |  | < 5.70
11 | Cc1cc2cnc(NC3CCN(S(C)(=O)=O)CC3)nc2c(N2CC3(CC(O)C3)C2)n1 [Compound 73, 2-(6-methyl-2-((1-(methylsulfonyl)piperidin-4-yl)amino)pyrido[3,4-d]pyrimidin-8-yl)-2-azaspiro[3.3]heptan-6-ol] | > 6.70 | 6.30 to 6.70 | 
12 | COCCN1CC2(CC(c3nc(C4CC4)cc4cnc(NC5CCN(S(=O)(=O)CC6CCC6)CC5)nc34)C2)C1 [Compound 80, N-(1-((cyclobutylmethyl)sulfonyl)piperidin-4-yl)-6-cyclopropyl-8-(2-(2-methoxyethyl)-2-azaspiro[3.3]heptan-6-yl)pyrido[3,4-d]pyrimidin-2-amine] | > 6.70 | > 6.70 | 

Other lines, results leading:

Row | pIC50 [1] | pIC50 [2] | pIC50 [3] | SMILES
13 | > 6.70 | > 6.70 | 6.30 to 6.70 | Cc1cc2cnc(NC3CCN(S(=O)(=O)C4CC4)CC3)nc2c(N2CC3(CCNC3)C2)n1 [Compound 25, N-(1-(cyclopropylsulfonyl)piperidin-4-yl)-6-methyl-8-(2,6-diazaspiro[3.4]octan-2-yl) pyrido[3,4-d]pyrimidin-2-amine]
14 | > 6.70 | > 6.70 |  | Cc1cc2cnc(Nc3ccc(N4CC5(CN(C)C5)C4)cc3)nc2c(N2CCC3(C2)CC3(F)F)n1 (stereo not drawn) [Compound 34, 8-(1,1-difluoro-5-azaspiro[2.4]heptan-5-yl)-6-methyl-N-(4-(6-methyl-2,6-diazaspiro[3.3]heptan-2-yl)phenyl)pyrido [3,4-d]pyrimidin-2-amine]
15 | > 6.70 | > 6.70 | < 5.70 | Cc1cc2cnc(N[C@H]3CC[C@H](CN(C)C)CC3)nc2c(N2CCC3(C2)CC3(F)F)n1 (stereo partly drawn) [Compound 40, 8-(1,1-difluoro-5-azaspiro[2.4]heptan-5-yl)-N-((1r,4r)-4-((dimethylamino)methyl)cyclohexyl)-6-methylpyrido[3,4-d]pyrimidin-2-amine]
16 | > 6.70 | 6.30 to 6.70 |  | Cc1cc2cnc(NC3CCN(S(=O)(=O)C4CC4)CC3)nc2c(N2CC3(CCN(C)C3)C2)n1 [Compound 49, N-(1-(cyclopropylsulfonyl)piperidin-4-yl)-6-methyl-8-(6-methyl-2,6-diazaspiro[3.4]octan-2-yl)pyrido[3,4-d]pyrimidin-2-amine]
17 | > 6.70 | > 6.70 |  | FC(F)c1cc2cnc(Nc3ccc4c(c3)CN(C3CC3)C4)nc2c(N2CC3(CCNC3)C2)n1 [Compound 50, N-(2-cyclopropylisoindolin-5-yl)-6-(difluoromethyl)-8-(2,6-diazaspiro[3.4]octan-2-yl)pyrido[3,4-d]pyrimidin-2-amine]
18 | > 6.70 | 6.30 to 6.70 |  | COCCN1CC2(C1)CN(c1nc(C3CC3)cc3cnc(NC4CCN(S(=O)(=O)CC5CCC5)CC4)nc13)C2 [Compound 64, N-(1-((cyclobutylmethyl)sulfonyl)piperidin-4-yl)-6-cyclopropyl-8-(6-(2-methoxyethyl)-2,6-diazaspiro[3.3]heptan-2-yl)pyrido [3,4-d]pyrimidin-2-amine]
19 | > 6.70 | > 6.70 |  | Cc1cc2cnc(NC3CCN(S(C)(=O)=O)CC3)nc2c(C2CC(C)(CO)C2)n1 (stereo not drawn) [Compound 69, (1-methyl-3-(6-methyl-2-((1-(methylsulfonyl)piperidin-4-yl)amino)pyrido[3,4-d]pyrimidin-8-yl)cyclobutyl) methanol]
20 | 6.30 to 6.70 | 6.30 to 6.70 |  | Cc1cc2cnc(NC3CCN(S(=O)(=O)C4CC4)CC3)nc2c(N2CC(N3CC(F)C3)C2)n1 [Compound 72, N-(1-(cyclopropylsulfonyl)piperidin-4-yl)-8-(3-fluoro-[1,3′-biazetidin]-1′-yl)-6-methylpyrido[3,4-d]pyrimidin-2-amine]
21 | 6.30 to 6.70 | 6.30 to 6.70 |  | Cc1cc2cnc(NC3CCN(S(=O)(=O)C4CC4)CC3)nc2c(N2CC(CS(C)(=O)=O)C2)n1 [Compound 74, N-(1-(cyclopropylsulfonyl)piperidin-4-yl)-6-methyl-8-(3-((methylsulfonyl)methyl)azetidin-1-yl)pyrido[3,4-d]pyrimidin-2-amine]
